# ChEMBL document CHEMBL1201862, “PubChem BioAssay data set” (2004)
# The source made the active and inactive calls.
# Tests used:
# Mu-type opioid receptor = Mu-type opioid receptor (Homo sapiens, UniProt P35372); assay type: functional, cell-based;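 further: U2OS cells with beta-arrestin recruitment to OPRM1 by beta-gal complementation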
# [1] = molecular target: 5-hydroxytryptamine receptor 2A (Mus musculus, UniProt P35363); assay type: functional, cell-based;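 further: CHO-K1 cells with tagged receptor and beta-arrestin; agonist potency measured as compound-induced activation of the receptor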
# Sequence of 5-hydroxytryptamine receptor 2A (P35363 whole entry): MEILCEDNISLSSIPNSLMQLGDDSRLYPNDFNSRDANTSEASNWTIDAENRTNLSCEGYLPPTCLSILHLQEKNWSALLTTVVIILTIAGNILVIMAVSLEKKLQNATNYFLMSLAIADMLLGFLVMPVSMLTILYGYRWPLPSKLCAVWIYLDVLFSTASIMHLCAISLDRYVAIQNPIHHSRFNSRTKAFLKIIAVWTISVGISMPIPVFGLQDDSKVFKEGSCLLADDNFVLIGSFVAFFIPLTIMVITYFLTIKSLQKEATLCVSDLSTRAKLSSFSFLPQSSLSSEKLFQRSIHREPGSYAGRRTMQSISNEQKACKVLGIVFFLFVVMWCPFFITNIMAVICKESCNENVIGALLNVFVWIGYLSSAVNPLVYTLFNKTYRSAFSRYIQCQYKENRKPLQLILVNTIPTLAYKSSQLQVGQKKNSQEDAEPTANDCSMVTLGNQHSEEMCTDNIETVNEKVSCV
# [2] = molecular target: Luciferin 4-monooxygenase (Photinus pyralis, UniProt P08659); assay: inhibition of purified Photinus pyralis luciferase – biochemical, luminescence, dose response (AID 1891)
# Sequence of Luciferin 4-monooxygenase (P08659 whole entry): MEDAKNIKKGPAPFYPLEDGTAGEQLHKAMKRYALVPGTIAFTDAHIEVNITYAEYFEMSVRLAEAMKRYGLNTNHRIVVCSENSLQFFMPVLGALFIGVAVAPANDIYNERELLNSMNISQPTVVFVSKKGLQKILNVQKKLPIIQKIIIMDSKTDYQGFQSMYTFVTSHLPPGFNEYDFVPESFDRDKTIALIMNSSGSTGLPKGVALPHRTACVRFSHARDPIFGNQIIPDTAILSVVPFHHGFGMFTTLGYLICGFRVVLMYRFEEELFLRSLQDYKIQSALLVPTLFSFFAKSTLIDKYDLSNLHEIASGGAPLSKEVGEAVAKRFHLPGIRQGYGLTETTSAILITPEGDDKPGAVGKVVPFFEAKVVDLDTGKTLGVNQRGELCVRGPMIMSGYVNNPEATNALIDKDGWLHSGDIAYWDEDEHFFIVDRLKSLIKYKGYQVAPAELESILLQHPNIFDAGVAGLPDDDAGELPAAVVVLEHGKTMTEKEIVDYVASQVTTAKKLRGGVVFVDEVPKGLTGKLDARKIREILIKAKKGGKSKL
# [3] = Luminescence Cell-Based Dose Confirmation HTS to Identify Inhibitors of Platelet Dense Granule Release. [Related pubchem assays: 1663 (Primary HTS), 1678 (Summary of Project)]; assay type: functional
# Protein skinhead-1 = molecular target: T1, Protein skinhead-1 (Caenorhabditis elegans, UniProt P34707); assay type: functional
# T1 sequence (P34707 whole entry): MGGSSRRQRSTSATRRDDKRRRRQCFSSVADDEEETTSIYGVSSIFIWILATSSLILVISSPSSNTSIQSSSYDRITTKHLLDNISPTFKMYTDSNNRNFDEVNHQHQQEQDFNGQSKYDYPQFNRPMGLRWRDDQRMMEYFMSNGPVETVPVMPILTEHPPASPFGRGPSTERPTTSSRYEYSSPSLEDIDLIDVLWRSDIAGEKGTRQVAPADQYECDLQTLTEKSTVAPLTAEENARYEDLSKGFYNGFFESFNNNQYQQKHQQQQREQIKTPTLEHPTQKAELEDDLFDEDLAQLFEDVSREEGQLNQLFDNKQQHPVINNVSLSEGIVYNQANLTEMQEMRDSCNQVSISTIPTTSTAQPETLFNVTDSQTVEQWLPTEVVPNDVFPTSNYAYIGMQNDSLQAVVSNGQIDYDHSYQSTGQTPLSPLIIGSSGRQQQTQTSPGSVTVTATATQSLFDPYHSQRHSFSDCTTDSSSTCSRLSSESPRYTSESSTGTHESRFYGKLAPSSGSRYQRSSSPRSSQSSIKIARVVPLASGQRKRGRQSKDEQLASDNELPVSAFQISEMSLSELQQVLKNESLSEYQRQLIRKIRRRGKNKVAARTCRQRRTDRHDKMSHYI
# [4] = molecular target: T2, Oxysterols receptor LXR-beta (Homo sapiens, UniProt P55055); assay type: functional, cell-based;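 further: Cell-based luminescence dose-response assay of agonist activity at LXR, run as a confirmatory counterscreen to a daf-12 agonist screen; HEK293 cells with Gal4-LXR fusion and GAL4-driven luciferase reporter; agonist potency from rising luciferase signal of a Gal4-LXR reporter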
# T2 sequence (P55055 whole entry): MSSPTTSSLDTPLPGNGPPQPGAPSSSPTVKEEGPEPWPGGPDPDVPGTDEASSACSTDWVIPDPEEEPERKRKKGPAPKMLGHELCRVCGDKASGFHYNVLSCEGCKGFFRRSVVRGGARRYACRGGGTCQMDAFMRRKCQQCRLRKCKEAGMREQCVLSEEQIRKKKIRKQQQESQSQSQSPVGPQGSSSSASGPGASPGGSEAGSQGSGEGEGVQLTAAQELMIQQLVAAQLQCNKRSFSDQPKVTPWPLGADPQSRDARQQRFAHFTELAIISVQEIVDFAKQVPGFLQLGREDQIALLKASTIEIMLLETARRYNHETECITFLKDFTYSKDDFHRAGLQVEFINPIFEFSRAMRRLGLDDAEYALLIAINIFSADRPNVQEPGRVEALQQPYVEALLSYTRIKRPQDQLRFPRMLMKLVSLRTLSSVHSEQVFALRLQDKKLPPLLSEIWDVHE
# [5] = NIH-3T3 fibroblast cytotoxicity, dose response, cytotoxicity control, cell-based, fluorescence, Alamar Blue, secondary assay (AID 2327); assay type: functional;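 further: NIH-3T3 mouse fibroblasts cultured with fluconazole at 8 µg/mL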
# [6] = fluconazole-exposed Candida albicans growth modulators – fluorescence, retest, confirmation (AID 2467); assay type: functional, cell-based
# [7] = molecular target: Mitogen-activated protein kinase 10 (Homo sapiens, UniProt P53779); assay: Dose response biochemical screening assay for inhibitors of c-Jun N-Terminal Kinase 3 (JNK3). [Related pubchem assays: 746 ]
# Sequence of Mitogen-activated protein kinase 10 (P53779 whole entry): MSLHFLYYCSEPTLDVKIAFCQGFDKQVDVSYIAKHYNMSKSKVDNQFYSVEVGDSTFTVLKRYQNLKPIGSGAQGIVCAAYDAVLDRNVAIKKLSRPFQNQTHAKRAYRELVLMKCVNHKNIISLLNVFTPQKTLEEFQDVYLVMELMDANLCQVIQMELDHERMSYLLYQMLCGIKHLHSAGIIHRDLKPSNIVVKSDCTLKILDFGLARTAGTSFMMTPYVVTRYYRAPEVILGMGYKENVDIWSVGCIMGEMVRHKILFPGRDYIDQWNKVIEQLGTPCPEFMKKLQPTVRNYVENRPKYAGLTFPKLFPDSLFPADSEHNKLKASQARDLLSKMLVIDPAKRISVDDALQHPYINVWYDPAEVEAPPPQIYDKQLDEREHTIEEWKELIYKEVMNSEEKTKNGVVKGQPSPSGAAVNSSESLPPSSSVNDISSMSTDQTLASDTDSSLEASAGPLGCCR
# Paired box protein Pax-8 = Paired box protein Pax-8 (Homo sapiens, UniProt Q06710); assay: PAX8 transcriptional activity inhibition in RMG-I – RMG-I cells, luciferase, cherry-pick, dose response (AID 687027); assay type: functional, cell-based;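 further: luciferase reporter driven by Pax8 target thyroperoxidase promoter measured by SteadyGlo luminescence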
# Sequence of Paired box protein Pax-8 (Q06710 whole entry): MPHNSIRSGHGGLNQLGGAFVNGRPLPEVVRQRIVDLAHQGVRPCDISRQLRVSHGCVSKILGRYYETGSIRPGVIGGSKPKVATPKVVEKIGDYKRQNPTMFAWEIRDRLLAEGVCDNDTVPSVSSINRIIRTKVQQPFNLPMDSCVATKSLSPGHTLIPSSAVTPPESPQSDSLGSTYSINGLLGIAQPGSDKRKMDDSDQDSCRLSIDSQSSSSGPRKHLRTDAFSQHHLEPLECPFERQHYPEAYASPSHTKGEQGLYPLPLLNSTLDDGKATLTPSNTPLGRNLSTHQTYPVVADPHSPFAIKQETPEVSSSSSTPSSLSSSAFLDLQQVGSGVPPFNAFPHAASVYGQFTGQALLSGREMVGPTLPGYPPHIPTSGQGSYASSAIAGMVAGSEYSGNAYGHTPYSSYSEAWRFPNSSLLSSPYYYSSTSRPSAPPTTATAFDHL
# [8] = OVCAR8 cell viability loss – plate reader, dry powder samples, PAX8 project, dose response (AID 743197); assay type: functional, cell-based; conditions: OVCAR-8
# Sequence of Mu-type opioid receptor (P35372 whole entry): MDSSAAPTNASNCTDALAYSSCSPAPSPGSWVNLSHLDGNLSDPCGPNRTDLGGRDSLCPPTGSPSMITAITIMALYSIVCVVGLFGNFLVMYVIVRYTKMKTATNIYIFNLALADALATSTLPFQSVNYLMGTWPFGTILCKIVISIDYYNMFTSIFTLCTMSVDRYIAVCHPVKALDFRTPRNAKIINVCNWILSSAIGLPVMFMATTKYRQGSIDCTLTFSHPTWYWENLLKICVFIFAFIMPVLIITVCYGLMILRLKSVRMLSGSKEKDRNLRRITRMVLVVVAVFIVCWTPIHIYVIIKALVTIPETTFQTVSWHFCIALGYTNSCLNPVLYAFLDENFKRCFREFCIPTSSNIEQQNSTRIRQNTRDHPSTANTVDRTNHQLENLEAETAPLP
EC50 (Mu-type opioid receptor),EC50 [1],Structure (SMILES),EC50 [4],EC50 (cells),further results
92.4 µM (inactive),0.589 µM (active),COc1ccc(NC(=O)CSc2ccc(-c3ccccn3)nn2)cc1OC,,,
,,Cn1c(-c2ccco2)nc2cc3ccccc3cc21,> 67.5 µM (inactive),> 67.5 µM (inactive),EC50 [2]: 0.695 µM (active); EC50 [3]: 2.69 µM (active); IC50 (Protein skinhead-1): 33.9 µM (active)
,,COc1cc(CC(=O)Nc2nccs2)cc(OC)c1OC,,,EC50 [5]: > 160 µM (inactive); EC50 [6]: > 38 µM (not active); IC50 [7]: > 93.1 µM (not active)
,,Cc1ccnc(NC(=S)NC(=O)c2cccs2)c1,> 67.5 µM (inactive),> 67.5 µM (inactive),
92.4 µM (inactive),0.115 µM (active),COc1ccc(CC2(CO)CCN(C(C)COc3ccccc3)CC2)cc1 (stereo unspecified),,,
,,COc1ccccc1C#Cc1ccc2c(c1)O[C@H](CN(C)Cc1cccnc1)[C@H](C)CN([C@H](C)CO)S2(=O)=O,,,AC50 (Paired box protein Pax-8): 8.98 µM (active); AC50 [8]: 31.8 µM (active)
